Values after ≈ are worked out from the molar mass of the structure shown. Structures can show the parent of a compound that is named as a salt. Where two headings read alike, the source gives them in different places.
What was measured:
[1] = system: histamine paw oedema in guinea pigs; experiment: Histamine paw oedema in guinea pigs; type: in vivo, guinea pig; conditions: Cavia porcellus, read-out: Anaphylaxis in guinea pigs oral effective dose in mg/kg: Histamine oedema
Method: Guinea pigs, weighing between 400 and 500 g, are sensitized to ovalbumin by subplantar (s.p.) injection of 0.05 ml of antiserum in the left hind paw. The animals are then starved and orally treated, 24 hours after the sensitization, with saline (=control animals) or a particular dose of the compound under investigation. The histamine injection (at a dose of 50 μg) was given s.p. in the right hind paw 2 hours after the oral pretreatment with the compound.

[2] = system: Guinea-pig ileum strips, histamine-induced contraction; experiment: Anti-histamine activity in "vitro": histamine-induced spasms of guinea-pig ileum strips; type: cell-based; conditions: Cavia porcellus, 5 min
Method: The histamine--(0.5 mg/liter) induced spasms are recorded Kymographically with an isotonic lever giving a 5-fold magnification.

[3] = system: Guinea pigs sensitized to ovalbumin (anaphylactic shock); experiment: Anaphylaxis in guinea pigs: protection against death after ovalbumin challenge (survival); type: in vivo, guinea pig; conditions: Cavia porcellus, read-out: Anaphylaxis in guinea pigs oral effective dose in mg/kg: Survival
Method: The anti-anaphylactic and antihistaminic effects of the subject compounds (I) and salts thereof are studied "in vivo" in guinea pigs.
Guinea pigs, weighing between 400 and 500 g, are sensitized to ovalbumin by subplantar (s.p.) injection of 0.05 ml of antiserum in the left hind paw. The animals are then starved and orally treated, 24 hours after the sensitization, with saline (=control animals) or a particular dose of the compound under investigation.
The histamine injection (at a dose of 50 μg) was given s.p. in the right hind paw 2 hours after the oral pretreatment with the compound. The diameters of both hind paws are first measured before the histamine injection is given and again 10 minutes thereafter. The animals are challenged intravenously with 0.6 mg of ovalbumin 30 minutes after the histamine injection. All control animals develop typical primary anaphylactic shock symptoms (coughing, difficult breathing, convulsions) and 85% of these control animals die within 15 minutes after the ovalbumin injection. Protection against death is used as the criterion for possible drug effects and the estimated ED50 -value, i.e. the oral dose whereby the protection is observed in 50% of the guinea pigs, is listed in the tables below.

[4] = Table I-d, oral dose giving paw reaction below 10 units 10 minutes after 50 μg histamine s.p., 2 hours after dosing
[5] = Table I-d, histamine 0.5 mg/liter, 5 minutes incubation, concentration giving significant inhibition (50%) of the contraction, read-out: Histamine in "vitro" (ileum) effective dose
[6] = Table I-d, estimated ED50, oral, protection against death after i.v. 0.6 mg ovalbumin
[7] = Table I-a, oral dose giving paw reaction below 10 units 10 minutes after 50 μg histamine s.p., 2 hours after dosing
[8] = Table I-a, histamine 0.5 mg/liter, 5 minutes incubation, concentration giving significant inhibition (50%) of the contraction, read-out: Histamine in "vitro" (ileum) effective conc.
[9] = Table I-a, estimated ED50, oral, protection against death after i.v. 0.6 mg ovalbumin
[10] = Table I-b, oral dose giving paw reaction below 10 units 10 minutes after 50 μg histamine s.p., 2 hours after dosing
[11] = Table I-b, histamine 0.5 mg/liter, 5 minutes incubation, concentration giving significant inhibition (50%) of the contraction, read-out: Histamine in "vitro" (ileum) effective conc.
[12] = Table I-b, estimated ED50, oral, protection against death after i.v. 0.6 mg ovalbumin

Cl.Cl.O=c1oc2ccccc2n1CCCN1CCN(C(c2ccccc2)c2ccccc2)CC1 [I-c: Y=O, 3-{3-[4-(diphenylmethyl)-1-piperazinyl]propyl}-2(3H)benzoxazolone dihydrochloride]
minimal effective dose ([1]; po, 2 h): 2.5 mg/kg
IC50 ([2]; read-out: Histamine in "vitro" (ileum) effective conc. in mg/l): 0.01 mg/L
ED50 ([3]; po): 0.63 mg/kg

O=c1[nH]c2ccccc2n1CCN1CCC(OC(c2ccc(F)cc2)c2ccc(F)cc2)CC1 [1-[2-{4-[bis(4-fluorophenyl)methoxy]-1-piperidinyl}ethyl]-1,3-dihydro-2H-benzimidazol-2-one hydrochloride.hemihydrate]
minimal effective dose [1, 4]: 0.31 mg/kg
IC50 [2, 5]: 0.0025 mg/L
ED50 [3, 6]: 0.31 mg/kg

O=c1[nH]c2ccccc2n1CCCN1CCN(C(c2ccccc2)c2ccc(Cl)cc2)CC1 (stereo not drawn) [1-[3-{4-[α-(4-chlorophenyl)-α-phenylmethyl]-1-piperazinyl}propyl]-1,3-dihydro-2H-benzimidazol-2-one]
minimal effective dose [1, 7]: 0.63 mg/kg
IC50 [2, 8]: 0.01 mg/L (≈ 0.0217 µM)
ED50 [3, 9]: 1.25 mg/kg

O=c1[nH]c2cc(Cl)c(Cl)cc2n1CCCN1CCN(C(c2ccccc2)c2ccccc2)CC1 [5,6-dichloro-1-{3-[4-(diphenylmethyl)-1-piperazinyl]propyl}-1,3-dihydro-2H-benzimidazol-2one]
minimal effective dose [1, 7]: 2.5 mg/kg
IC50 [2, 8]: ≥ 0.16 mg/L
ED50 [3, 9]: 2.5 mg/kg

c1ccc(C(c2ccccc2)N2CCN(CCCn3c(C4CCCCC4)nc4ccccc43)CC2)cc1 [2-cyclohexyl-1-{3-[4-(diphenylmethyl)-1-piperazinyl]propyl}-1H-benzimidazole]
minimal effective dose [1, 10]: 2.5 mg/kg
IC50 [2, 11]: ≥ 0.16 mg/L
ED50 [3, 12]: 2.5 mg/kg

O=c1[nH]c2ccc(Cl)cc2n1CCN1CCN(C(c2ccccc2)c2ccccc2)CC1 [6-chloro-1-{2-[4-(diphenylmethyl)-1-piperazinyl]ethyl}-1,3-dihydro-2H-benzimidazol-2-one]
minimal effective dose [1, 7]: 2.5 mg/kg
IC50 [2, 8]: 0.02 mg/L (≈ 0.0447 µM)
ED50 [3, 9]: 2.5 mg/kg

O=c1[nH]c2ccccc2n1CCN1CCN(C(c2ccccc2)c2ccccc2)CC1 [I-a: L=H, R1=H, R2=H, (CH2)2, R6=H, R7=H, 1-{2-[4-(diphenylmethyl)-1-piperazinyl]ethyl}-1,3-dihydro-2H-benzimidazol-2-one]
minimal effective dose [1, 7]: 1.25 mg/kg
IC50 [2, 8]: 0.01 mg/L (≈ 0.0242 µM)
ED50 [3, 9]: 0.63 mg/kg

O=C(O)Cn1c(=O)n(CCCN2CCN(C(c3ccccc3)c3ccccc3)CC2)c2ccccc21 [3-{3-[4-(diphenylmethyl)-1-piperazinyl]-propyl}-2,3-dihydro-2-oxo-1H-benzimidazole-1-acetic acid hemihydrate]
minimal effective dose [1, 7]: < 2.5 mg/kg
IC50 [2, 8]: 0.08 mg/L
ED50 [3, 9]: < 2.5 mg/kg

c1ccc(C(OC2CCN(CCCn3cnc4ccccc43)CC2)c2ccccc2)cc1 [1-{3-[4-(diphenylmethoxy)-1-piperidinyl]propyl}-1H-benzimidazole]
minimal effective dose [1, 4]: 0.16 mg/kg
IC50 [2, 5]: 0.0025 mg/L (≈ 0.00587 µM)
ED50 [3, 6]: 0.16 mg/kg

O=c1[nH]c2ccccc2n1CCCN1CCN(C(c2ccccc2)c2ccccc2)CC1 [I-a: L=H, R1=H, R2=H, (CH2)3, R6=H, R7=H, 1-{3-[4-(diphenylmethyl)-1-piperazinyl]propyl}-1,3-dihydro-2H-benzimidazol-2-one]
minimal effective dose [1, 7]: 0.31 mg/kg
IC50 [2, 8]: 0.005 mg/L (≈ 0.0117 µM)
ED50 [3, 9]: 0.1 mg/kg

O=c1[nH]c2ccccc2n1CCCN1CCN(C(c2ccccc2)c2cccc(Cl)c2)CC1 (stereo not drawn) [1-[3-{4-[α-(3-chlorophenyl-α-phenylmethyl]-1-piperazinyl}propyl]-1,3-dihydro-2H-benzimidazol-2-one]
minimal effective dose [1, 7]: 1.25 mg/kg
IC50 [2, 8]: 0.01 mg/L (≈ 0.0217 µM)
ED50 [3, 9]: 0.63 mg/kg

O=c1[nH]c2ccccc2n1CCCN1CCC(OC(c2ccc(F)cc2)c2ccc(F)cc2)CC1 [1-[3-{4-[bis(4-fluorophenyl)methoxy]-1-piperidinyl}propyl]-1,3-dihydro-2H-benzimidazol-2-one hydrochloride.hemihydrate]
minimal effective dose [1, 4]: 0.63 mg/kg
IC50 [2, 5]: 0.0025 mg/L
ED50 [3, 6]: 0.63 mg/kg

Cc1ccc2c(c1)[nH]c(=O)n2CCCN1CCN(C(c2ccccc2)c2ccccc2)CC1 [1-{3-[4-(diphenylmethyl)-1-piperazinyl]propyl}-1,3-dihydro-5-methyl-2H-benzimidazol-2-one]
minimal effective dose [1, 7]: 0.16 mg/kg
IC50 [2, 8]: 0.01 mg/L (≈ 0.0227 µM)
ED50 [3, 9]: 0.08 mg/kg

Cc1ccc2c(c1)[nH]c(=O)n2CCN1CCN(C(c2ccccc2)c2ccccc2)CC1 [1-{2-[4-(diphenylmethyl)-1-piperazinyl]ethyl}-1,3-dihydro-5-methyl-2H-benzimidazol-2-one]
minimal effective dose [1, 7]: 1.25 mg/kg
IC50 [2, 8]: 0.01 mg/L (≈ 0.0234 µM)
ED50 [3, 9]: 1.25 mg/kg

O=c1[nH]c2cc(C(F)(F)F)ccc2n1CCCN1CCN(C(c2ccccc2)c2ccccc2)CC1 [1-{3-[4-(diphenylmethyl)-1-piperazinyl]propyl}-1,3-dihydro-5-(trifluoromethyl)-2H-benzimidazol-2-one]
minimal effective dose [1, 7]: 0.31 mg/kg
IC50 [2, 8]: 0.02 mg/L (≈ 0.0404 µM)
ED50 [3, 9]: 0.31 mg/kg

COC(=O)Nc1nc2ccccc2n1CCCN1CCN(C(c2ccccc2)c2ccccc2)CC1 [methyl [1-{3-[4-(diphenylmethyl)-1-piperazinyl]propyl}-1H-benzimidazol-2-yl]carbamate]
minimal effective dose [1, 10]: 2.5 mg/kg
IC50 [2, 11]: ≤ 0.16 mg/L
ED50 [3, 12]: 2.5 mg/kg

CCc1nc2ccccc2n1CCCN1CCN(C(c2ccccc2)c2ccccc2)CC1 [I-b: M=C2H5, R1=H, (CH2)3, R6=H, R7=H, 1-{3-[4-(diphenylmethyl)-1-piperazinyl]propyl}-2-ethyl-1H-benzimidazole trihydrochloride.hydrate]
minimal effective dose [1, 10]: 2.5 mg/kg
IC50 [2, 11]: 0.01 mg/L
ED50 [3, 12]: 2.5 mg/kg

C=C(C)n1c(=O)n(CCCN2CCN(C(c3ccccc3)c3ccccc3)CC2)c2ccccc21 [1-{3-[4-(diphenylmethyl)-1-piperazinyl]propyl}-1,3-dihydro-3-(1-methylethenyl)-2H-benzimidazol-2-one]
minimal effective dose [1, 7]: 0.31 mg/kg
IC50 [2, 8]: 0.01 mg/L (≈ 0.0214 µM)
ED50 [3, 9]: 0.16 mg/kg

O=c1[nH]c2cc(C(F)(F)F)ccc2n1CCN1CCN(C(c2ccccc2)c2ccccc2)CC1 [1-{2-[4-(diphenylmethyl)-1-piperazinyl]ethyl}-1,3-dihydro-5-(trifluoromethyl)-2H-benzimidazol-2-one]
minimal effective dose [1, 7]: 1.25 mg/kg
IC50 [2, 8]: 0.02 mg/L (≈ 0.0416 µM)
ED50 [3, 9]: 0.31 mg/kg

c1ccc(C(c2ccccc2)N2CCN(CCn3cnc4ccccc43)CC2)cc1 [I-b: M=H, R1=H, (CH2)2, R6=H, R7=H, 1-{2-[4-(diphenylmethyl)-1-piperazinyl]ethyl}-1H-benzimidazole]
minimal effective dose [1, 10]: 1.25 mg/kg
IC50 [2, 11]: 0.005 mg/L (≈ 0.0126 µM)
ED50 [3, 12]: 1.25 mg/kg

CC(CN1CCN(C(c2ccc(F)cc2)c2ccc(F)cc2)CC1)Cn1c(=O)[nH]c2ccccc21 (stereo not drawn) [1-[3-{4-[bis(4-fluorophenyl)methyl]-1-piperazinyl}-2-methylpropyl]-1,3-dihydro-2H-benzimidazol-2-one]
minimal effective dose [1, 7]: 1.25 mg/kg
IC50 [2, 8]: 0.02 mg/L (≈ 0.042 µM)
ED50 [3, 9]: 1.25 mg/kg

O=c1[nH]c2ccc(Cl)cc2n1CCCN1CCN(C(c2ccccc2)c2ccccc2)CC1 [6-chloro-1-{3-[4-(diphenylmethyl)-1-piperazinyl]propyl}-1,3-dihydro-2H-benzimidazol-2-one]
minimal effective dose [1, 7]: 0.63 mg/kg
IC50 [2, 8]: 0.04 mg/L (≈ 0.0868 µM)
ED50 [3, 9]: 0.63 mg/kg

O=c1[nH]c2ccccc2n1CCCN1CCC(OC(c2ccccc2)c2ccccc2)CC1 [1-{3-[4-(diphenylmethoxy)-1-piperidinyl]-propyl}-1,3-dihydro-2H-benzimidazol-2-one]
minimal effective dose [1, 4]: 1.25 mg/kg
IC50 [2, 5]: 0.0025 mg/L (≈ 0.00566 µM)
ED50 [3, 6]: 0.63 mg/kg
